One assay has as its system BSP gene. The assay can be described thus: BSP mRNA level by real-time PCR in human-derived mesenchymal stem cells. The format is cell-based. The note with it: compared to untreated control. Here is the method: (§1) It was cultured at 37° C. in humid air containing 5% CO2 and used for the experiment. Human mesenchymal stem cells (hBMSCs) were purchased from Lonza (LONZA, Switzerland) and used. hBMSCs were cultured in a-MEM (Invitrogen) medium supplemented with 10% heat-inactivated bovine serum.
(§2) Total RNA of human dental pulp cells and mesenchymal stem cells was isolated using a TRIzol reagent. cDNA was synthesized using 2 μg of total RNA, 1 μl of reverse transcriptase, and 0.5 μg of oligo (dT). The synthesized cDNA was used for real-time polymerase chain reaction. The real-time polymerase chain reaction was performed in ABI PRISM 7500 sequence detection system (Applied Biosystems) using SYBR GREEN PCR Master Mix (Takara, Japan). The real-time polymerase chain reaction was performed at 94° C., 1 min; 95° C., 15 sec-60° C., 34 sec was performed under the condition of repeating 40 cycles. An analysis of the results was evaluated using a comparative cycle threshold (CT) method, and primer base sequences are listed in Table 9.
(§3) BSP and DMP1 genes are used as markers for differentiation of osteoblasts and cementoblasts, and are known as important genes for calcification of a bone and cementum. The effects of each group of peptides on BSP and DMP1 mRNA expression were confirmed by a real-time PCR (Tables 11 and 12).
A general note: Quantitative PCR measures a nucleic acid by following its amplification.

The subject of the next assay is DSP. In words: Western blot of DSP protein in human dental pulp cells. Format: cell-based. The note with it: 1, 10, and 50 ug, FIG. 3. Here is the method:
(§4) FIG. 3 is a result of confirming expressions of DSP and BSP proteins by Western blot after treating human dental pulp cells with the novel peptide (SEQ ID NO: 1) in a concentration-dependent manner (1, 10, and 50 ug) to confirm the effect of novel peptides on expressions of marker proteins for differentiation of odontoblasts, osteoblasts and cementoblasts.
For orientation: In western blotting, separated proteins are transferred to a membrane and probed.

A further assay concerns BSP. In words: Western blot of BSP protein in human dental pulp cells. The format is cell-based. The note with it: 1, 10, and 50 ug, FIG. 3. How it is done:
as §4

In the next assay the test system is DSPP gene. In words: DSPP mRNA level by real-time PCR in human dental pulp cells. The format is cell-based. The note with it: peptide 10 ug/ml, compared to untreated control. How it is done:
Human pulp tissue cells were isolated from wisdom teeth of 10 adults (18-22 years old) at Seoul National University Dental Hospital. Specifically, all experiments were performed with the patient's consent after approval from the hospital's Institutional Review Board, and wisdom teeth are cut according to a method of Jung H S et al (J Mol Histol. (2011)), exposing the pulp and isolating the pulp with forceps. The isolated pulp was minced on both sides, placed in a 60 mm dish, covered with a cover slip, and then cultured in Dulbecco's Modified Eagle medium. It is known that human dental pulp cells can differentiate into odontoblasts, osteoblasts, cementoblasts and periodontal ligament cells under various conditions (Tissue Eng Part A. 2014 April; 20(7-8): 1342-51).
as §2
The effect of each group of peptides on DSPP mRNA expression was confirmed by real-time PCR (Table 10).

A further assay deals with DMP1 gene. In words: DMP1 mRNA level by real-time PCR in human-derived mesenchymal stem cells. The format is cell-based. The note with it: compared to untreated control. Here is the method:
as §1, §2, §3

Assay [1] deals with damaged dentin of beagle dog's teeth. In words: Dentin regeneration in dentin damage model. The note with it: 10 ug per tooth, 3 weeks after application, vs control group, FIG. 4. The format is in vivo. How it is done: Three beagle dogs (12-16 kg; […]) were anesthetized by inhalation of Geloran, intravenously injected with Zoletil (5 mg/kg) and Xylazine (0.2-0.5 mg/kg), and then treated with Lidocaine (Lidocaine 2% with 1:80,000 epinephrine). After damaging the dentin of the premolars and molar teeth in the mandible of the beagle dog using a dental bur, 10 ug of SEQ ID NO: 1 peptide of group 1 was treated per tooth. After 6 weeks, a beagle dog was sacrificed by administering an excessive amount (90-120 mg/kg) of pentobarbital. The tooth of the beagle dog was extracted, fixed with 10% formalin, calcium was removed by adding 5% formic acid, molded, and embedded in paraffin, and then a tissue section with a thickness of 5 μm were obtained, a obtained tissue section was stained with hematoxylin and eosin, and then analyzed using by an optical microscope equipped with a digital camera (LEICA ICC50 camera, Germany).
FIG. 4 is the result of histological evaluation 3 weeks after application of 10 ug of the novel peptide (SEQ ID NO: 1) after damaging the dentine of beagle dog's teeth in order to confirm that the novel peptide induces physiological dentin regeneration in a animal model of damaged dentin.

The subject of assay [2] is human dental pulp cells (hDPCs) transplanted into the subcutaneous tissue of mice with impaired immune systems. In words: In vivo transplantation of hDPCs with HA/TCP and histological analysis. Here is the method:
Human dental pulp cells (hDPCs) were isolated and used for in vivo transplantation experiments. hDPCs (2×10^6 cells) were mixed with 100 mg of hydroxy apatite/tricalcium phosphate (HA/TCP) ceramic powder (Zimmer, USA) alone or along with peptides (10 μg) or 0.5% fibrin gel, and then transplanted into mice (NIH-bg-nu-xid; Harlan Laboratories, Indianapolis, IN) with damaged immune systems for 6 and 12 weeks. Thereafter, samples were harvested, fixed in 4% paraformaldehyde, decalcified in 10% EDTA (pH 7.4), embedded in paraffin, and stained with hematoxylin-eosin (H-E) (Vector Labs).

As for KYKAKKKNYK [SEQ ID NO: 1], in the assay on BSP gene, the “mRNA level of BSP gene, BSP gene expression, Average” value (shortened to “mRNA level of BSP gene”) stood at 2.892 fold. Further, the “expression of DSP protein (marker for differentiation of odontoblasts)” value with DSP is “increased in a concentration-dependent manner”. The “expression of BSP protein (marker for differentiation of osteoblasts and cementoblasts)” value in the assay on BSP is reported as “increased in a concentration-dependent manner”. Moreover, in the assay on DSPP gene, the “mRNA level of DSPP gene, Average” value was determined as 9.028 fold. Besides, the “mRNA level of DMP1 gene, DMP1 gene expression, Average” value (from here on “mRNA level of DMP1 gene”) in the assay on DMP1 gene worked out at 11.401 fold. For the same sequence, the “physiological dentin regeneration, histological evaluation” value in assay [1] was “physiological dentin was formed in the lower part the damaged dentine”. Further, the “periodontal ligament formation, hematoxylin-eosin histology” value in assay [2] (10 ug peptide with hDPCs, 6 weeks after transplantation, vs hDPCs-only control, FIG. 6) was “periodontal ligament fiber bundle (black triangle) were formed”. In assay [2] (10 ug peptide with hDPCs, 12 weeks after transplantation, vs hDPCs-only control, FIG. 5), the “proportion of hard tissue formation” value is on record as “increased”. In addition, in assay [2] (hDPCs with HA/TCP, 12 weeks after transplantation, FIG. 5), the “hard tissue (bone/cementum-like tissue) formation, hematoxylin-eosin histology” value is reported as “more similar hard tissue formation as the BMP-2 treated group compared to the control group”.

With KYRARKKNYK [SEQ ID NO: 20], the “mRNA level of BSP gene” value in the assay with BSP gene stood at 2.91 fold. In addition, the “mRNA level of DSPP gene, Average” value in the assay on DSPP gene is reported as 1.702 fold. The “mRNA level of DMP1 gene” value in the assay on DMP1 gene came out at 8.537 fold.

Turning to KYRARKKSYK [SEQ ID NO: 28], the “mRNA level of BSP gene” value in the assay with BSP gene came out at 2.084 fold. The “mRNA level of DSPP gene, Average” value in the assay with DSPP gene is 2.311 fold. For the same sequence, the “mRNA level of DMP1 gene” value with DMP1 gene came out at 9.198 fold.

As to KYRARKRNYK [SEQ ID NO: 24], in the assay on BSP gene, the “mRNA level of BSP gene” value was 2.276 fold. Also, the “mRNA level of DSPP gene, Average” value in the assay with DSPP gene is on record as 2.021 fold. For the same sequence, in the assay with DMP1 gene, the “mRNA level of DMP1 gene” value is listed as 9.333 fold.

KYRARKRSYK [SEQ ID NO: 32]: the “mRNA level of BSP gene” value in the assay with BSP gene is given as 1.893 fold. In addition, the “mRNA level of DSPP gene, Average” value in the assay on DSPP gene came out at 1.861 fold. Further, in the assay with DMP1 gene, the “mRNA level of DMP1 gene” value stood at 8.107 fold.

On to KYRARRKNYK [SEQ ID NO: 22], for which the “mRNA level of BSP gene” value in the assay with BSP gene is recorded as 1.893 fold. Also, the “mRNA level of DSPP gene, Average” value in the assay with DSPP gene was 2.005 fold. In addition, the “mRNA level of DMP1 gene” value in the assay with DMP1 gene came out at 7.997 fold.

For the sequence KYRARRKSYK [SEQ ID NO: 30], the “mRNA level of BSP gene” value in the assay with BSP gene came out at 2.222 fold. Further, the “mRNA level of DSPP gene, Average” value with DSPP gene was 1.836 fold. In the assay with DMP1 gene, the “mRNA level of DMP1 gene” value amounted to 8.683 fold.

For KYRARRRNYK [SEQ ID NO: 23], in the assay on BSP gene, the “mRNA level of BSP gene” value is listed as 2.037 fold. Also, the “mRNA level of DSPP gene, Average” value in the assay on DSPP gene is 1.915 fold. Besides, the “mRNA level of DMP1 gene” value with DMP1 gene came out at 9.105 fold.

As to KYRARRRSYK [SEQ ID NO: 31], the “mRNA level of BSP gene” value with BSP gene worked out at 1.798 fold. Further, the “mRNA level of DSPP gene, Average” value with DSPP gene is 1.620 fold. In the assay with DMP1 gene, the “mRNA level of DMP1 gene” value came out at 9.100 fold.

The values are drawn from US20240190916A1, “NOVEL PEPTIDE” (HYSENSBIO, priority 2022, published 2024).
